# Experimental data reported in US7572606B1 (Nereus Pharmaceuticals, Inc., priority 2005, dated 2009).
# “And” between values parts separate entries of the source, which are not always exact repeats. Identical values can stand only once. Like-named read-outs stand apart in the source and are kept apart here.
# Tests used:
# [1] = system: Caspase-3 activity in Jurkat cells; assay: Caspase-3 activity assay (EnzChek); format: cell-based, human; details: EC50 concentration, 19 hours
# Protocol: Jurkat cells were plated at 2×10^6 cells/3 mL per well in a 6-well plate and incubated at 37° C., 5% (v/v) CO2 and 95% (v/v) humidity. […] Bhalla, et al., Blood 82:3133 (1993). […] Cells treated with 0.25% DMSO served as the negative control. The cells were collected by centrifugation and the media removed. Cell pellets were processed for the Caspase-3 activity assay as described in the manufacturer's protocol (EnzChek Caspase-3 Assay Kit from Molecular Probes (E-13183; see Appendix G, which form a part of this application and is also available at hypertext transfer protocol on the worldwide web at “probes.com/media/pis/mp13183.pdf.”. In brief, cell pellets were lysed on ice, mixed with the EnzChek Caspase-3 components in a 96-well plate, and then incubated in the dark for 30 minutes prior to reading fluorescence of cleaved benzyloxycarbonyl-DEVD-AMC using a Packard Fusion with λex=485 nm and λem=530 nm filters. Protein concentrations for lysates were determined using the BCA Protein Assay Kit (Pierce) and these values were used for normalization.
# U266 = assay: Cell growth inhibition, resazurin, 48 h; format: cell-based, human; details: U266, 48 h drug exposure
# RPMI 8226 = assay: Cell growth inhibition, resazurin, 48 h; details: for EC50: Homo sapiens, RPMI-8226, 48 h, RPMI 8226, 48 h drug exposure; for % cytotoxicity: RPMI 8226
# Protocol: RPMI 8226 (CCL-155), HT-29 (HTB-38), and B16-F10 (CRL-6475) cells were purchased from ATCC. RPMI 8226 cells were maintained in RPMI 1640 media supplemented with 10% (v/v) FBS, 2 mM L-glutamine, 1 mM sodium pyruvate and Penicillin/Streptomycin at 100 IU/ml and 100 μg/ml, respectively. HT-29 cells were maintained in McCoys 5A supplemented with 10% (v/v) FBS, 2 mM L-glutamine, 1 mM sodium pyruvate, 1% (v/v) non-essential amino acids, 10 mM HEPES and Penicillin/Streptomycin at 100 IU/ml and 100 μg/ml, respectively. B16-F10 cells were maintained in DMEM supplemented with 10% (v/v) FBS, 2 mM L-glutamine, 10 mM HEPES and Penicillin/Streptomycin at 100 IU/ml and 100 μg/ml, respectively.
# RPMI 8226 cells were seeded at 2×10^4 cells/well in 90 μl RPMI media containing 10% (v/v) FBS or 1% (v/v) FBS into 96 well black-walled, clear-bottom tissue culture plates. […] Formulae II-16, II-17 and Formula II-18 were serially diluted in media containing 1% or 10% FBS and added in triplicate to the test wells. […] The final concentration of Formula II-18 ranged from 2 μM to 630 pM.
# PARP in Jurkat cells = assay: PARP cleavage, western blot; format: cell-based, human; details: 100 nM Salinosporamide A 2-24 hrs; […] nM Staurosporine 4 hrs
# MES-SA/Dx5 = assay: Cell growth inhibition, resazurin, 48 h; details: for EC50: Homo sapiens, MES-SA/Dx5, 48 h
# Protocol: (§1) Concentrations ranging from 6.32 μM to 2 nM were tested for II-2 and II-4.
# MES-SA = assay: Cell growth inhibition, resazurin, 48 h; details: for EC50: Homo sapiens, 48 h
# Protocol: as §1
# NCI-H292 = assay: Cell growth inhibition, resazurin, 48 h; format: cell-based, human; details: NCI-H292, 48 h drug exposure
# Jurkat = assay: Cytotoxicity against Jurkat cells; format: cell-based, human
# HEK293 = assay: Cell growth inhibition, resazurin, 48 h; format: cell-based; details: Homo sapiens; HEK293, 48 h drug exposure
# HL-60 = assay: Cell growth inhibition, resazurin, 48 h; details: for EC50: HL-60, 48 h drug exposure
# Protocol: (§2) The DNA binding agent Mitoxantrone was included as a control, as HL-60/MX2 cells are reported to be resistant to this chemotherapeutic agent (Harker W. G. et al. 1989).
# as §1
# HL-60/MX2 = assay: Cell growth inhibition, resazurin, 48 h; details: for EC50: HL-60/MX2, 48 h drug exposure
# Protocol: as §2, §1
# [2] = target: T1, 20S proteasome chymotrypsin-like activity in PC-3 cells (Homo sapiens, UniProt P28074); assay: Chymotrypsin-like activity of 20S proteasomes in treated cells; format: cell-based; details: PC-3, read-out: % inhibition of the chymotrypsin-like activity of 20S proteasomes in PC-3 cell lysates, 1 hr; for inhibition at 0.01 µM: 10 nM; for inhibition at 0.1 µM: 100 nM; for inhibition at 1 µM: 1,000 nM; for inhibition at 10 µM: 10,000 nM
# T1 construct: PC-3 (ATCC, CRL-1435), the human prostate cancer cell line; host or cells: PC-3
# T1 sequence (P28074 60-263): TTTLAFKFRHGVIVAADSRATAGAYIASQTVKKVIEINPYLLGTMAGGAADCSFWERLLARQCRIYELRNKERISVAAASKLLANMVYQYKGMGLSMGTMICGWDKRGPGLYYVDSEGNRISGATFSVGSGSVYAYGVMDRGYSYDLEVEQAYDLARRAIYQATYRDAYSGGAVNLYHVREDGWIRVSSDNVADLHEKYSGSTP
# Protocol: PC-3 (ATCC, CRL-1435), the human prostate cancer cell line, was cultured in F12K medium supplemented with 2 mM L-glutamine, 100 units/ml penicillin, 100 μg/ml streptomycin and 10% heat inactivated fetal bovine serum at 37° C., 5% CO2 and 95% humidified air. […] DMSO was used as the vehicle control at a final concentration of 0.1%. Following 1 hr incubation of PC-3 cells with the compounds, the cells were washed 3× with ice-cold 1×Dulbecco's Phosphate-Buffered Saline (DPBS, Mediatech, Herndon, Va.). […] Cell debris was pelleted by centrifugation at 14,000 rpm for 10 min, 4° C. and supernatants (=cell lysates) were transferred to a new tube. Protein concentration was determined by the BCA protein assay kit (Pierce Biotechnology, Rockford, Ill.). […] The total amount of protein used for each assay was 20 μg. The final concentration of Suc-LLVY-AMC and DMSO was 20 μM and 0.2%, respectively. Results are presented as the percent inhibition of the 20S proteasome chymotrypsin-like activity relative to the DMSO control.
smiles,measurement,setting,value
"C[C@@]12OC(=O)[C@]1([C@@H](O)[C@@H]1C=CCCC1)NC(=O)[C@@H]2CCCl [Formula II-16, Salinosporamide A]",Caspase-3 activity,[1],activation of Caspase-3
same,EC50,"U266; Homo sapiens, U-266, 48 h",0.0047 ± 0.0007 µM
same,EC50,RPMI 8226,0.0086 ± 0.0019 µM
same,% cytotoxicity,RPMI 8226; listed as II-16,94 ± 0%
same,% cytotoxicity,RPMI 8226; listed as Salinosporamide A,94 ± 1%
same,PARP cleavage,PARP in Jurkat cells,cleavage of PARP within the Jurkat cells in a time-dependent fashion
same,EC50,MES-SA/Dx5,0.023 ± 0.001 µM
same,% cytotoxicity,MES-SA/Dx5; MES-SA/Dx5,92 ± 2%
same,% cytotoxicity,MES-SA,94 ± 1%
same,EC50,MES-SA,0.02 ± 0.005 µM
same,EC50,"NCI-H292; Homo sapiens, NCI-H292, 48 h",0.097 µM
same,EC50,NCI-H292,0.066 ± 0.029 µM
same,EC50,"Jurkat; Homo sapiens, Jurkat",0.01 µM
same,% max cell kill,Jurkat; Jurkat cells,97%
same,EC50,HEK293,0.047 µM
same,% cytotoxicity,HL-60; HL-60,88% and 91%
same,EC50,HL-60,0.03 µM
same,EC50,"HL-60; Homo sapiens, HL-60, 48 h",0.027 µM
same,% cytotoxicity,HL-60/MX2; HL-60/MX2,84% and 89%
same,EC50,HL-60/MX2,0.025 µM
same,EC50,"HL-60/MX2; Homo sapiens, HL60/MX2, 48 h",0.028 µM
CC[C@H]1C(=O)N[C@@]2([C@@H](O)[C@@H]3C=CCCC3)C(=O)O[C@@]12C [Formula II-17],inhibition at 0.01 µM,[2],16%
same,inhibition at 0.1 µM,[2],26%
same,inhibition at 1 µM,[2],49%
same,inhibition at 10 µM,[2],79%
same,EC50,"MES-SA/Dx5; MES-SA/Dx5, 48 h drug exposure",9.45 µM
same,EC50,MES-SA; 48 h drug exposure,9.23 µM
same,EC50,"NCI-H292; Homo sapiens, read-out: EC50",> 20 µM
same,EC50,"HL-60; Homo sapiens, HL-60, 48 h",> 20 µM
same,EC50,"HL-60/MX2; Homo sapiens, HL60/MX2, 48 h",> 20 µM
C[C@H]1C(=O)N[C@@]2([C@@H](O)[C@@H]3C=CCCC3)C(=O)O[C@@]12C [Formula II-20],EC50,"U266; Homo sapiens, U-266, 48 h",0.31 µM
same,EC50,U266,0.442 µM
same,EC50,RPMI 8226,8.51 ± 3.26 µM
same,inhibition at 0.01 µM,[2],38%
same,inhibition at 0.1 µM,[2],57%
same,inhibition at 1 µM,[2],71%
same,inhibition at 10 µM,[2],90%
